Source: ChEMBL document CHEMBL1201862, “PubChem BioAssay data set” (2004)
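48-hour exposure; five concentrations; linearly interpolated endpoints. Here, GI50 denotes the concentration required for 50% inhibition of growth.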 The source made the active and inactive calls. Rule as the data show it: active = GI50 up to about 1.1 µM and inactive = higher.

Legend:
Assay in all cases: inhibition of tumour cell growth, NCI panel, 48 h
[1] = test system: HL-60
[2] = test system: IGROV-1
[3] = test system: HT-29
[4] = test system: SK-MEL-2
[5] = test system: SR
[6] = test system: SF-539
[7] = test system: OVCAR-4
[8] = test system: KM12
[9] = test system: TK-10
[10] = test system: SK-MEL-5
[11] = test system: RPMI-8226
[12] = test system: DU-145
[13] = test system: SK-MEL-28
[14] = test system: UO-31
[15] = test system: ACHN
[16] = test system: HCC 2998
[17] = test system: NCI-H23
[18] = test system: SN12C
[19] = test system: HOP-92

Measured: GI50

COc1ccc(N[S+]([O-])c2c(C)cc(C)cc2C)cc1 (stereo unspecified)
inactive: [1] 33 µM | [2] 22.5 µM | [3] 46.1 µM | [4] > 100 µM | [5] 35.7 µM | [6] 19.9 µM | [7] 86.5 µM | [8] 22.5 µM | [9] > 100 µM | [10] 23.8 µM | [11] 45.3 µM | [12] 93.3 µM | [13] > 100 µM | [14] 18.2 µM | [15] 43.7 µM | [16] 19.5 µM | [17] > 100 µM | [18] > 100 µM

CCOP(=O)(CC(=O)C1CC1)OCC
inactive: [1] > 100 µM | [2] > 100 µM | [3] > 100 µM | [4] > 100 µM | [5] > 100 µM | [6] > 100 µM | [7] > 100 µM | [8] > 100 µM | [9] > 100 µM | [10] > 100 µM | [12] > 100 µM | [13] > 100 µM | [14] > 100 µM | [15] > 100 µM | [16] > 100 µM | [17] > 100 µM | [18] > 100 µM

CCOC(=O)/C=C(/C(=O)OCC)n1ccc(N)nc1=O
inactive: [19] 53.3 µM | [1] 70.6 µM | [2] > 100 µM | [3] 62.1 µM | [4] > 100 µM | [5] 89.1 µM | [6] > 100 µM | [7] 56 µM | [8] > 100 µM | [9] > 100 µM | [10] > 100 µM | [11] > 100 µM | [12] > 100 µM | [13] > 100 µM | [14] > 100 µM | [15] > 100 µM | [16] > 100 µM | [17] > 100 µM | [18] > 100 µM

COC(=O)CCC1=CCC2(SC)C(=O)Nc3cccc1c32 (stereo unspecified)
inactive: [19] > 100 µM | [1] > 100 µM | [2] > 100 µM | [3] > 100 µM | [4] > 100 µM | [5] > 100 µM | [6] > 100 µM | [7] > 100 µM | [8] > 100 µM | [9] > 100 µM | [10] > 100 µM | [11] > 100 µM | [12] 44.5 µM | [13] > 100 µM | [14] > 100 µM | [15] > 100 µM | [16] > 100 µM | [17] > 100 µM | [18] > 100 µM

CCN(CC)c1ccc2cc(-c3nc(O)c4ccccc4n3)c(=N)oc2c1
inactive: [19] > 100 µM | [1] > 100 µM | [2] > 100 µM | [3] > 100 µM | [4] > 100 µM | [5] > 100 µM | [6] > 100 µM | [7] > 100 µM | [8] > 100 µM | [9] > 100 µM | [10] > 100 µM | [11] > 100 µM | [12] > 100 µM | [13] > 100 µM | [14] > 100 µM | [15] > 100 µM | [16] > 100 µM | [18] > 100 µM
